The text below walks through data of patent publication US20130310411A1, “NOVEL ACRIDINE DERIVATIVES” (PHARMINOX LIMITED, priority 2010, published 2013).

The test system of test [1] is HT-29: human adenocarcinoma cell line. Nature of the test: Growth inhibition assay (MTT). It is filed as cell-based. Conditions: HT-29 cells, 96 hr incubation. The method, then:
Growth inhibition was measured in the HT-29: human adenocarcinoma cell line using the 3-(4,5-Dimethylthiazol-2-yl)-2,5-diphenyltetrazolium bromide (MTT) assay:
Briefly, between 1500 and 2200 cells were seeded into the wells of 96-well microtiter plates and allowed to attach overnight. Test compounds were solubilised at 10 mM in dimethyl sulfoxide (DMSO), diluted in tissue culture media and added to cells at final concentrations of 30, 10, 3, 1, 0.3, 0.1, 0.03 and 0.01 μM in triplicate. Following an incubation period of 96 hr MTT was added to a final concentration of 400 μg/ml and the plates incubated for a further 4 hr. The media/MTT was then aspirated and 150 μl DMSO added. Plates were shaken briefly and the absorbance at 550 nm read using a Labtech LT-4000 plate reader. An extra plate was seeded and the MTT assay was carried out on this plate at the time of drug addition to ascertain an initial absorbance value.
Dose response curves were plotted and the GI50 values (concentration required to inhibit cell growth by 50%) determined for each agent where the absorbance value for control cells minus the initial absorbance was taken as 100% growth.

The test system of test [2] is hTel, 5′ biotin-d[AG3(T2AG3)3]3′ (quadraplex) versus duplex, 5′biotind[CGA3T3C2TCTGA3T3CG]3′. Nature of the test: Surface Plasmon Resonance Assay (SPR). It is filed as binding. Conditions: HEPES buffer pH 7.3, 25° C. The method, then: Biosensor experiments were conducted in filtered, degassed HEPES buffer (10 mM HEPES, 100 mM KCl, 3 mM EDTA, 0.000 05 v/v of 10% P20 BIACORE surfactant, pH 7.3) at 25° C. The 5′-biotin labeled DNA sequences (Integrated DNA Technologies) were HPLC purified and comprise the following sequences: hTel, ^5′ biotin-d[AG3(T2AG3)3]^3′; duplex, ^5′biotind[CGA3T3C2TCTGA3T3CG]^3′. The experiments were conducted upon a BIAcore 2000 optical biosensor instrument (BIAcore Inc.). Flow cell 1 was left blank as a reference, while flow cells 2-4 were immobilized with DNA on a streptavidin-derivatized gold chip (SA chip from BIAcore) by manual injection of DNA stock solutions (flow rate of 1 μL/min) until the desired value of DNA response was obtained (350-400 RU). Typically, a series of different ligand concentrations (1 nM to 10 μM from 20 mM DMSO stock) were injected onto the chip (flow rate of 50 μL/min, 5-10 min) until a constant steady-state response was obtained followed by a dissociation period (buffer, 10 min). After every cycle, the chip surface was regenerated (20 s injection of 10 mM glycine solution, pH 2.0) followed by running buffer flow. The data were processed using BIAevaluation (BIAcore Inc.) and Kaleidagraph (Synergy Software) software for nonlinear least-squares optimization of the binding parameters.

Compound `c1ccc2c(c1)Oc1c3ccccc3nc3cccc-2c13` [Example 1, Chromeno[4,3,2-kl]acridine] registered a concentration for 50% growth inhibition (GI50) in test [1] of 10.4 µM. That is a double-digit micromolar value. In the case of `C[n+]1c2ccccc2c2c3c(cccc31)-c1ccccc1O2.[Cl-]` [Example 2, 8-Methylchromeno[4,3,2-kl]acridin-8-ium chloride], the “Quadraplex:duplex ratio” value in test [2] amounted to 4.75. The compound also returned a GI50 in test [1] of 0.93 µM.

`C[n+]1c2ccccc2c2c3c(cccc31)-c1ccccc1S2` [Example 3, 8-methylthiochromeno[4,3,2-kl]acridin-8-ium chloride] returned a GI50 in test [1] of 3.04 µM. As to `[O-][n+]1c2ccccc2c2c3c(cccc31)-c1ccccc1O2` [Example 4, chromeno[4,3,2-kl]acridine 8-oxide], the “Quadraplex:duplex ratio” value in test [2] was 7.5. For the same compound, the GI50 in test [1] was over 30 µM. In the case of `CCOC(=O)C[n+]1c2ccccc2c2c3c(cccc31)-c1ccccc1O2` [Example 5, 8-(2-ethoxy-2-oxoethyl)chromeno[4,3,2-kl]acridin-8-ium iodide], in test [1], the GI50 was determined as 9.88 µM. This counts as single-digit micromolar. Same read-out and setting: the figure for `CC(=O)Nc1ccc2c(c1)-c1cccc3nc4ccccc4c(c13)O2` [Example 6, N-(chromeno[4,3,2-kl]acridin-3-yl)acetamide] is 9.39 µM; for `CC(=O)Nc1ccc2c(c1)-c1cccc3c1c(c1ccccc1[n+]3C)O2` [Example 7, acetamido-8-methylchromeno[4,3,2-kl]acridin-8-ium chloride] it is 0.95 µM. The same measure, in the same setting: the same measure for `COc1ccc2c(c1)-c1cccc3c1c(c1ccccc1[n+]3C)S2` [Example 8, 3-methoxy-8-methylthiochromeno[4,3,2-kl]acridin-8-ium chloride]: 1.04 µM; for `COc1cccc2c1-c1cccc3c1c(c1ccccc1[n+]3C)S2` [Example 9, 4-methoxy-8-methylthiochromeno[4,3,2-kl]acridin-8-ium iodide]: 0.95 µM. On to `COc1ccc2c(c1)-c1cccc3c1c(c1ccc(OC)cc1[n+]3C)S2` [Example 10, 3,10-dimethoxy-8-methylthiochromeno[4,3,2-kl]acridin-8-ium chloride], for which the “Quadraplex:duplex ratio” value in test [2] is 7.0. In test [1], this compound returned a GI50 of 0.27 µM.

As for `COC(=O)c1ccc2c(c1)Sc1c3ccc(OC)cc3[n+](C)c3cccc-2c13` [Example 11, 10-methoxy-2-(methoxycarbonyl)-8-methylthiochromeno[4,3,2-kl]acridin-8-ium chloride], the “Quadraplex:duplex ratio” value in test [2] turned out to be 17.4. Further, in test [1], growth was halved (GI50) at 0.76 µM. For `COC(=O)c1cccc2c1-c1cccc3c1c(c1ccc(OC)cc1[n+]3C)S2` [Example 12, 10-methoxy-4-(methoxycarbonyl)-8-methylthiochromeno[4,3,2-kl]acridin-8-ium chloride] the same measures were over 53 and 4.49 µM. In test [1], `CC(=O)Oc1ccc2c(c1)-c1cccc3c1c(c1ccccc1[n+]3C)S2` [Example 13, 3-acetoxy-8-methylthiochromeno[4,3,2-kl]acridin-8-ium chloride] registered a GI50 of 6.17 µM. That is a single-digit micromolar value. On to `C[n+]1c2ccccc2c2c3c(cccc31)-c1cc(O)ccc1S2` [Example 14, 3-hydroxy-8-methylthiochromeno[4,3,2-kl]acridin-8-ium chloride], for which the “Quadraplex:duplex ratio” value in test [2] is given as over 80. Further, it took 3.67 µM to inhibit growth in test [1] by half (GI50).

On to `COC(=O)c1ccc2c(c1)Sc1c3ccccc3[n+](C)c3cccc-2c13` [Example 15, 2-(methoxycarbonyl)-8-methylthiochromeno[4,3,2-kl]acridin-8-ium chloride], for which, in test [2], the “Quadraplex:duplex ratio” value is 18.1. Further, the 50% growth inhibitory concentration (GI50) in test [1] turned out to be 2.99 µM. Regarding `COC(=O)c1cccc2c1-c1cccc3c1c(c1ccccc1[n+]3C)S2` [Example 16, 4-(methoxycarbonyl)-8-methylthiochromeno[4,3,2-kl]acridin-8-ium iodide], in test [1], halving of growth (GI50) required 12.8 µM. On to `COCOc1ccc2c(c1)-c1cccc3nc4ccccc4c(c13)S2` [Example 17, 3-(methoxymethoxy)thiochromeno[4,3,2-kl]acridine], for which the GI50 in test [1] came out at 1.88 µM.

Compound `CC(=O)Nc1cccc2c1-c1cccc3c1c(c1ccccc1[n+]3C)S2` [Example 18, 4-acetamido-8-methylthiochromeno[4,3,2-kl]acridin-8-ium iodide] yielded a 50% growth inhibitory concentration (GI50) in test [1] of 9.66 µM.

In test [1], `COc1ccc2c3c4c(c(OC)ccc4[n+](C)c2c1)-c1ccccc1S3` [Example 19, 5,10-dimethoxy-8-methylthiochromeno[4,3,2-kl]acridin-8-ium iodide] had a 50% growth inhibitory concentration (GI50) of 1.03 µM. Take `COC(=O)c1ccc2c(c1)-c1cccc3c1c(c1ccccc1[n+]3C)S2` [Example 20, 3-(methoxycarbonyl)-8-methylthiochromeno[4,3,2-kl]acridin-8-ium iodide and chloride]: the GI50 in test [1] stood at 6.46 µM.
